Data set [1] deals with Hepatitis C virus. Nature of the data set: Inhibition of HCV genotype 1b patient isolate recombinant NS5B polymerase expressed in Escherichia coli DH5alpha assessed as inhibition of [3H]UTP incorporation after 2 hrs by scintillation counting. Further details: species or system Hepatitis C virus subtype 1b.
Data set [2] can be described thus: Inhibition of HCV genotype 1a H77 recombinant NS5B polymerase expressed in Escherichia coli DH5alpha assessed as inhibition of [3H]UTP incorporation after 2 hrs by scintillation counting. Also on record: species or system Hepatitis C virus (isolate H77).
Data set [3] in a line: Inhibition of HCV genotype 1b BK recombinant NS5B polymerase expressed in Escherichia coli DH5alpha assessed as inhibition of [3H]UTP incorporation after 2 hrs by scintillation counting. Also on record: species or system Hepatitis C virus (isolate BK).
Data set [4] can be described thus: Inhibition of HCV genotype 2a NS5B polymerase assessed as inhibition of [3H]UTP incorporation after 2 hrs by scintillation counting. Also on record: species or system Hepatitis C virus subtype 2a.
Data set [5] can be described thus: Inhibition of HCV genotype 3a NS5B polymerase assessed as inhibition of [3H]UTP incorporation after 2 hrs by scintillation counting. Further details: species or system Hepatitis C virus subtype 3a.
For data set [6], the system named is Hepatitis C virus. Nature of the data set: Antiviral activity against HCV genotype 1b infected in HuH7 cells by SEAP reporter gene assay. The class given is functional, organism-based, Hepacivirus hominis. Conditions: Huh-7.
Data set [7] is described as follows: Cytotoxicity against human HuH7 cells by MTT assay. In kind it is cell-based, Huh-7. To be noted: read-out: TD50 (the source's name). Background: Tetrazolium assays rely on reduction of a dye to a coloured formazan, in cell work by metabolically active cells.
Data set [8] deals with Hepatitis C virus subtype 1a. Nature of the data set: Resistance ratio of IC50 for HCV genotype 1a NS5B polymerase C316Y mutant to IC50 for HCV genotype 1a wildtype NS5B polymerase.
The test system of data set [9] is Hepatitis C virus subtype 1a. The data set can be described thus: Resistance ratio of IC50 for HCV genotype 1a NS5B polymerase M414T mutant to IC50 for HCV genotype 1a wildtype NS5B polymerase.
Data set [10] relates to Hepatitis C virus subtype 1a. Nature of the data set: Resistance ratio of IC50 for HCV genotype 1a NS5B polymerase T448Y mutant to IC50 for HCV genotype 1a wildtype NS5B polymerase.
Data set [11] relates to Hepatitis C virus subtype 1a. Nature of the data set: Resistance ratio of IC50 for HCV genotype 1a NS5B polymerase M423T mutant to IC50 for HCV genotype 1a wildtype NS5B polymerase.
Data set [12] deals with Hepatitis C virus subtype 1a. The data set can be described thus: Resistance ratio of IC50 for HCV genotype 1a NS5B polymerase P495A mutant to IC50 for HCV genotype 1a wildtype NS5B polymerase.
Data set [13] in a line: Inhibition of HCV genotype 2b NS5B polymerase assessed as inhibition of [3H]UTP incorporation after 2 hrs by scintillation counting. Also on record: species or system Hepatitis C virus subtype 2b.

What is called IC50 is the point on the concentration scale where inhibition reaches its midpoint. In general, EC50 refers to the concentration needed to bring the measured effect to its halfway point. Read a low EC50 as an effect from little substance.

With `COc1c(Br)cc(N2CCC(=O)NC2=O)cc1C(C)(C)C`, the IC50 with Hepatitis C virus [1] was found to be 7.4 µM.
Still for that read-out and setting: under `COc1ccc(N2CCC(=O)NC2=O)cc1C(C)(C)C` stands 6.4 µM.
Still for that read-out and setting: under `CC(C)(C)c1cc(N2CCC(=O)NC2=O)ccc1O` stands 7.6 µM; under `O=C1CCN(c2cccc(C(F)(F)F)c2)C(=O)N1`, above 200 µM.
Same read-out and setting: under `COc1cc(N)c(N2CCC(=O)NC2=O)cc1C(C)(C)C` stands 1.7 µM; under `COc1cc(NC(C)=O)c(N2CCC(=O)NC2=O)cc1C(C)(C)C`, 6.5 µM.
As to `COc1cc([N+](=O)[O-])c(N2CCC(=O)NC2=O)cc1C(C)(C)C`, the IC50 in the data set with Hepatitis C virus [1] is 0.4 µM; in data set [2], 0.58 µM; in data set [3], 0.36 µM; in data set [4] it was above 200 µM; in [5], above 200 µM; in data set [13], above 200 µM. In the data set on Hepatitis C virus [6], this compound returned an EC50 of 0.84 µM. The CC50 in data set [7] is above 50 µM. In addition, the Ratio IC50 was above 100 in data set [8]; 24 in data set [9]; 41 in data set [10]; 5 in [11]; 5 in [12].
Regarding `COc1cc(N(C)C)c(N2CCC(=O)NC2=O)cc1C(C)(C)C`, in the data set on Hepatitis C virus [1], the IC50 amounted to 6.7 µM.
Still for that read-out and setting: with `CC(C)(C)c1cccc(N2CCC(=O)NC2=O)c1` the figure was 47 µM; with `COc1c(Br)cc(N2CCC(=O)N(C)C2=O)cc1C(C)(C)C`, above 200 µM.

The values above are taken from ChEMBL document CHEMBL2029307, “Identification of aryl dihydrouracil derivatives as palm initiation site inhibitors of HCV NS5B polymerase” (Bioorg Med Chem Lett, 2012).
